Assays:
Type in all cases: cell-based
Aspergillus flavus = experiment: Agar plate disc-diffusion, antifungal inhibition zone; details: Sabouraud's dextrose agar, 37° C., 72 h, DMSO zone subtracted
Procedure: (§1) The agar plate disc-diffusion method was applied. Sterilized filter papers (6 mm in diameter) were wetted with 10 μL of a solution of 6′-(4-methoxyphenyl)-2′-ethoxy-3,4′-bipyridine-3′-carbonitrile (4) or 6′-(4-methoxyphenyl)-2′-methoxy-3,4′-bipyridine-3′-carbonitrile (5) to be tested, containing […] in DMSO, and the discs were allowed to air dry. The discs were then placed onto the surface of agar plates (nutrient agar for bacteria and Sabouraud's dextrose agar for fungi) seeded with the test organism. Each plate contained 15 mL of the agar medium, previously seeded with 0.2 mL of the broth culture of each organism pregrown for 18 hours. The plates were incubated at 37° C. for 48 h, and 72 h for fungi. The inhibition zones were measured in mm. Discs impregnated with DMSO were used as a control, and its inhibition zone was subtracted from the tested compound actual inhibition zone.
(§2) The results of the antimicrobial testing can be observed in Tables 1 and 2, below, using ciprofloxacin as a reference.

[1] = test system: Chrysosporium keratinophilum; experiment: as above; details: Sabouraud's dextrose agar, 37° C., 72 h, DMSO zone subtracted
Procedure: as §1, §2

Escherichia coli = experiment: Agar plate disc-diffusion, antibacterial inhibition zone; details: nutrient agar, 37° C., 48 h, DMSO zone subtracted
Procedure: as §1, §2

Pseudomonas aeruginosa = experiment: as above; details: nutrient agar, 37° C., 48 h, DMSO zone subtracted
Procedure: as §1, §2

Bacillus Cereus = experiment: as above; details: nutrient agar, 37° C., 48 h, DMSO zone subtracted
Procedure: as §1, §2

Staphylococcus aureus = experiment: as above; details: nutrient agar, 37° C., 48 h, DMSO zone subtracted
Procedure: as §1, §2

different microbes = experiment: Antimicrobial activity, overall statement on Tables 1 and 2; details: summary of Tables 1 and 2, bacteria and fungi
Procedure: as §1
Their antibacterial activity was screened against gram positive bacteria namely Bacillus cereus and Staphylococcus aureus and gram-negative bacterial strains namely Pseudomonas aeruginosa and Escherichia coli, while their antifungal activity was screened against Aspergillus flavus and Chrysosporium keratinophilum.

[2] = A = concentration of comp. = 10,000 μL
[3] = B = concentration of comp. = 30.000 μL
[4] = C = concentration of comp. = 50,000 μL

SMILES | inhibition zone (Aspergillus flavus; [2]) [mm] | inhibition zone (Aspergillus flavus; [3]) [mm] | inhibition zone (Aspergillus flavus; [4]) [mm] | inhibition zone [1, 2] [mm] | inhibition zone [1, 3] [mm] | inhibition zone [1, 4] [mm] | inhibition zone (Escherichia coli; [2]) [mm] | inhibition zone (Escherichia coli; [3]) [mm] | inhibition zone (Escherichia coli; [4]) [mm] | inhibition zone (Pseudomonas aeruginosa; [2]) [mm] | inhibition zone (Pseudomonas aeruginosa; [3]) [mm] | inhibition zone (Pseudomonas aeruginosa; [4]) [mm] | inhibition zone (Bacillus Cereus; [2]) [mm] | inhibition zone (Bacillus Cereus; [3]) [mm] | inhibition zone (Bacillus Cereus; [4]) [mm] | inhibition zone (Staphylococcus aureus; [2]) [mm] | inhibition zone (Staphylococcus aureus; [3]) [mm] | inhibition zone (Staphylococcus aureus; [4]) [mm] | antimicrobial activities (in words) (different microbes)
O=C(O)c1cn(C2CC2)c2cc(N3CCNCC3)c(F)cc2c1=O [Cip., ciprofloxacin, reference compound] | 29 | 30 | 42 | 29 | 30 | 53 | 30 | 39 | 60 | 29 | 30 | 53 | 29 | 30 | 42 | 43 | 44 | 53 | –
CCOc1nc(-c2ccc(OC)cc2)cc(-c2cccnc2)c1C#N [Compound 4, 6′-(4-methoxyphenyl)-2′-ethoxy-3,4′-bipyridine-3′-carbonitrile] | 23 | 27 | 38 | 25 | 28 | 46 | 26 | 36 | 49 | 25 | 28 | 41 | 19 | 25 | 32 | 17 | 21 | 31 | high antimicrobial activities
COc1ccc(-c2cc(-c3cccnc3)c(C#N)c(OC)n2)cc1 [Compound 5, 6′-(4-methoxyphenyl)-2′-methoxy-3,4′-bipyridine-3′-carbonitrile] | 24 | 26 | 39 | 27 | 28 | 49 | 27 | 37 | 50 | 23 | 31 | 39 | 23 | 25 | 37 | 19 | 27 | 32 | high antimicrobial activities

From patent US12065424B1, “6′(4-methoxyphenyl)-2′-alkoxy-3,4′-bipyridine-3′-carbonitrile as antimicrobial compounds” (KING FAISAL UNIVERSITY, priority 2023, dated 2024)
